In ChEMBL document CHEMBL2311472, “Discovery and optimization of potent broad-spectrum arenavirus inhibitors derived from benzimidazole and related heterocycles” (Bioorg Med Chem Lett, 2013) one finds EC50 data, which are given here for 38 molecules.

Some results are limits rather than exact numbers.

The test system of assay [1] is Guanarito virus. In words: Antiviral activity against Guanarito virus. It is filed as functional. The conditions noted are these: Mammarenavirus guanaritoense.
Assay [2] concerns Junin virus. In words: Antiviral activity against Junin virus. In kind it is functional, organism-based. The conditions noted are these: Mammarenavirus juninense.
For assay [3], the system named is Sabia virus. In words: Antiviral activity against Sabia virus. In kind it is functional.
Assay [4] has as its system Machupo mammarenavirus. Kind of assay: Antiviral activity against Machupo virus. In kind it is functional. The conditions noted are these: Mammarenavirus machupoense.
The test system of assay [5] is Lassa virus. Kind of assay: Antiviral activity against Lassa virus by pseudo-type antiviral assay. It is filed as functional, organism-based. The conditions noted are these: Mammarenavirus lassaense.

`COc1ccc(-n2cnc3cc(NCc4ccc(C(C)C)cc4)ccc32)cc1`: the EC50 in assay [1] was found to be 0.00044 µM; in assay [2] it was 0.00062 µM; in assay [3], 0.021 µM; in assay [4] it was 0.0031 µM; in assay [5], 0.0014 µM.

In assay [5], `CCOc1ccc(-n2c(N)nc3cc(NCc4ccc(CC)cc4)ccc32)cc1` had an EC50 of 0.029 µM.

In assay [5], `CCOc1ccc(-n2c(O)nc3cc(NCc4ccc(CC)cc4)ccc32)cc1` had an EC50 of 1.8 µM.

In the case of `CCOc1ccc(-n2cnc3cc(NCc4ccc(CC)cc4)cc(C(=O)OC)c32)cc1`, the EC50 in assay [5] worked out at 0.22 µM.

`CCOc1ccc(-n2cnc3cc(NCc4ccc(CC)cc4)cc(C(=O)O)c32)cc1` returned a half-maximal effective concentration (EC50) in assay [5] of over 50 µM.

For the molecule `CCOc1ccc(-n2cnc3cc(NCc4ccc(CC)cc4)cc(N)c32)cc1`, the EC50 in assay [5] stood at 0.62 µM.

`CCOc1ccc(-n2cnc3cc(NCCc4ccc(CC)cc4)cnc32)cc1` displayed a concentration giving a half-maximal response (EC50) in assay [5] of 0.065 µM.

For the molecule `CCOc1ccc(-n2cnc3cc(NCCCc4ccc(CC)cc4)cnc32)cc1`, a half-maximal response in assay [5] (EC50) required 0.21 µM. Against the preceding molecule, the EC50 is about 3.2-fold higher.

`CCOc1ccc(-n2cnc3cc(/N=C/c4ccc(CC)cc4)cnc32)cc1`: in assay [5], the EC50 is 4.3 µM.

In assay [5], `CCOc1ccc(Cn2cnc3cc(NCc4ccc(CC)cc4)cnc32)cc1` displayed an EC50 of 1.6 µM. Against the preceding molecule, the EC50 is about 2.7-fold lower.

For `CCc1ccc(CNc2cnc3c(c2)ncn3-c2ccc(O)cc2)cc1`, the concentration giving a half-maximal response (EC50) in assay [5] was 0.019 µM.

On to `CCc1ccc(CNc2cnc3c(c2)ncn3-c2ccc(OCCCO)cc2)cc1`, for which the EC50 in assay [5] came out at 0.013 µM.

`CCc1ccc(CNc2cnc3c(c2)ncn3-c2ccc(OCCN(C)C)cc2)cc1` had a concentration for a half-maximal effect (EC50) in assay [5] of 0.08 µM.

In assay [5], `CCc1ccc(CNc2cnc3c(c2)ncn3-c2ccc(NC(C)=O)cc2)cc1` yielded a concentration for a half-maximal effect (EC50) of 0.011 µM.

With `CCOc1ccc(-n2cnc3cc(NCc4ccc(CC)cc4)cnc32)cc1N(C)C`, in assay [5], the EC50 is 0.25 µM.

`CCOc1ccc(-n2cnc3cc(NCc4ccc(CC)cc4)cnc32)c(CN)c1`: in assay [5], the response was half-maximal at 1.5 µM (EC50).

The molecule `CCOc1ccc(-n2cnc3cc(NCc4ccc(CC)cc4)cnc32)cc1CN` registered an EC50 in assay [5] of 0.058 µM. Against the preceding molecule, the EC50 is about 26-fold lower.

The molecule `CCOc1ccc(-n2cnc3cc(NCc4ccc(CC)c(N(C)C)c4)cnc32)cc1` yielded an EC50 in assay [5] of 0.0059 µM.

`CCOc1ccc(-n2cnc3cc(NCc4ccc(CC)c(CN)c4)cnc32)cc1` returned a 50% effective concentration (EC50) in assay [5] of 0.026 µM.

In assay [5], `CCOc1ccc(-n2cnc3cc(NCc4ccc(CC)cc4)ccc32)cc1` showed an EC50 of 0.0015 µM.

In assay [5], `CCOc1ccc(-n2c(C)nc3cc(NCc4ccc(CC)cc4)ccc32)cc1` returned an EC50 of 0.0019 µM. This EC50 and that of the molecule before are within 1.5-fold of each other.

In turn, `CCCc1nc2cc(NCc3ccc(CC)cc3)ccc2n1-c1ccc(OCC)cc1` came in with a 50% effective concentration (EC50) in assay [5] of 0.17 µM.

Regarding `CCOc1ccc(-n2c(C#N)nc3cc(NCc4ccc(CC)cc4)ccc32)cc1`, it took 0.0016 µM to reach a half-maximal effect in assay [5] (EC50).

In assay [5], `CCOc1ccc(-n2c(C(=O)O)nc3cc(NCc4ccc(CC)cc4)ccc32)cc1` gave a concentration giving a half-maximal response (EC50) of 0.0015 µM. The EC50 values of the last two molecules are within 1.5-fold of each other.

Take `CCOc1ccc(-n2c(C(N)=O)nc3cc(NCc4ccc(CC)cc4)ccc32)cc1`: in assay [5], the half-maximal effective concentration (EC50) worked out at 0.0092 µM.

`CCOc1ccc(-n2ccc3cc(NCc4ccc(CC)cc4)ccc32)cc1` returned an EC50 in assay [5] of 0.069 µM.

With `CCOc1ccc(-c2c[nH]c3cc(NCc4ccc(CC)cc4)ccc23)cc1`, the EC50 in assay [2] amounted to 0.012 µM; in assay [3] it was 0.0039 µM; in assay [4], 0.04 µM; in assay [5], 0.013 µM.

In the case of `COc1ccc(-n2ncc3cc(NCc4ccc(C(C)C)cc4)ccc32)cc1`, it took 0.13 µM to reach a half-maximal effect in assay [5] (EC50).

Regarding `CCOc1ccc(-n2nnc3cc(NCc4ccc(CC)cc4)ccc32)cc1`, a half-maximal response in assay [5] (EC50) required 0.0061 µM.

`CCOc1ccc(-c2cnc3cc(NCc4ccc(CC)cc4)ccn23)cc1` registered a half-maximal effective concentration (EC50) in assay [5] of 0.0093 µM.

Take `CCOc1ccc(-n2ccc3cc(NCc4ccc(CC)cc4)cnc32)cc1`: the EC50 in assay [5] is 0.025 µM.

`CCOc1ccc(-n2cnc3nc(NCc4ccc(CC)cc4)ccc32)cc1` showed a concentration giving a half-maximal response (EC50) in assay [5] of 0.0068 µM.

On to `CCOc1ccc(-n2cnc3cc(NCc4ccc(CC)cc4)cnc32)cc1`, for which the EC50 in assay [1] amounted to 0.0035 µM; in assay [2], 0.0079 µM; in assay [3], 0.054 µM; in assay [4] it was 0.028 µM; in assay [5], 0.00016 µM.

Turning to `CCOc1ccc(-n2nnc3cc(NCc4ccc(CC)cc4)cnc32)cc1`, the EC50 in assay [1] came out at 0.0077 µM; in assay [2] it was 0.014 µM; in assay [3], 0.093 µM; in assay [4], 0.081 µM; in assay [5], 0.00087 µM.

As to `CCOc1ccc(-n2c(C(N)=O)nc3cc(NCc4ccc(CC)cc4)cnc32)cc1`, the EC50 in assay [5] was 0.0044 µM. In other words, the single-digit nanomolar range.

`CCOc1ccc(-n2c(C(=O)O)nc3cc(NCc4ccc(CC)cc4)cnc32)cc1` returned an EC50 in assay [5] of 0.00016 µM. Against the preceding molecule, the EC50 is about 28-fold lower.

Regarding `CCOc1ccc(-n2cnc3cc(NCc4ccc(CC)cc4)cnc32)cn1`, the midpoint of the response in assay [5], the EC50, lay at 0.009 µM.

For the molecule `CCOc1ccc(-n2cnc3cc(NCc4ccc(CC)cc4)cnc32)nc1`, the response in assay [5] was half-maximal at 0.00098 µM (EC50). This EC50 lies about 9.2-fold lower than the previous one.
